We go through 1 compound from patent US7709465B2, “Phosphorous containing compounds including triphenylmethylphosphonate esters for the treatment of melanoma and other cancers” (The Board of Trustees of the University of Illinois, priority 2006, dated 2010).

Each structure is given as a SMILES string.

What all share (assay type): cell-based
Assay [1] deals with ACHN. Briefly: High-throughput cell death assay I, ACHN. Conditions: renal (human), read-out: diethyl TPMP IC50. An excerpt:
(§1) Compound CX5 was further tested using the same high-throughput cell death assay I for activity in inducing death in multiple cell lines representing a variety of cancer types.

Assay [2] has as its system SK-N-SH. Briefly: High-throughput cell death assay I, SK-N-SH. Conditions: neuroblastoma (human), read-out: diethyl TPMP IC50.
Source text: as §1

Assay [3] concerns Hs578t. Briefly: High-throughput cell death assay I, Hs578t. Conditions: Hs-578T, breast (human), read-out: diethyl TPMP IC50.
Source text: as §1

Assay [4] has as its system MDA-MB-231. Briefly: High-throughput cell death assay I, MDA-MB-231. Conditions: Homo sapiens, read-out: diethyl TPMP IC50.
Source text: as §1

Assay [5] has as its system K562. Briefly: High-throughput cell death assay I, K562. Conditions: K562, leukemia (CML, human); read-out: diethyl TPMP IC50.
Source text: as §1

In assay [6] the test system is HL-60. Briefly: High-throughput cell death assay I, HL-60. Conditions: HL-60, leukemia (human); read-out: diethyl TPMP IC50.
Source text: (§2) According to the American Type Culture Collection (ATCC), U-937 is a human cell line of histiocytic lymphoma tissue with monocyte morphology. See Sundstrom C, Nilsson K, Int. J. Cancer 17: 565-577, 1976. Also according to ATCC, HL-60 is a human cell line of a tissue type described as peripheral blood, promyeloblast, and acute promyelocytic leukemia, with myeloblastic morphology. See Gallagher R, et al., Blood 54: 713-733, 1979.
as §1

Assay [7] deals with SK-MEL-5. Briefly: High-throughput cell death assay I, SK-MEL-5. Conditions: SK-MEL-5, melanoma (human); read-out: diethyl TPMP IC50.
Source text: as §1

The test system of assay [8] is CRL-1782. Briefly: High-throughput cell death assay I, CRL-1782. Conditions: CRL-1782, melanoma (human); read-out: diethyl TPMP IC50.
Source text: as §1

The subject of assay [9] is NCI-H226. Briefly: High-throughput cell death assay I, NCI-H226. Conditions: NCI-H226, lung (human); read-out: diethyl TPMP IC50.
Source text: as §1

The subject of assay [10] is U-937. Briefly: High-throughput cell death assay I, U-937. Conditions: U-937, lymphoma (human); read-out: diethyl TPMP IC50.
Source text: as §2, §1

Assay [11] deals with B16-F10. Briefly: High-throughput cell death assay I, B16-F10. Conditions: B16-F10, melanoma (mouse); read-out: diethyl TPMP IC50.
Source text: as §1

One may read the IC50 as the concentration at which inhibition is half-maximal. Take `CCOP(=O)(OCC)C(c1ccccc1)(c1ccccc1)c1ccccc1` [CX5]: the IC50 amounted to 9.69 µM in [1]; 1.8 µM in [2]; 13.2 µM in assay [3]; 1.09 µM in assay [4]; 3.27 µM in assay [5]; 13.2 µM in assay [6]. Moreover, the IC50 in assay [7] is 3.39 µM; in assay [8], 1.41 µM; in assay [9], 6.56 µM; in [10], 11.6 µM; in assay [11], 0.81 µM.
